Literature values as cited in patent US20130178535A1, “Acetaminophen Composition” (B. Braun Melsungen AG, priority 2010, published 2013).

pH at which breakdown (hydrolysis) in aqueous solution is minimal: ~6
SMILES: CC(=O)Nc1ccc(O)cc1 [paracetamol, N-(4-hydroxyphenyl)ethanamide]
